This note sets out measurements from US20170276611A1, “CHALCOGENOPYRYLIUM DYES, COMPOSITIONS COMPRISING SAME, COMPOSITE NANOPARTICLES COMPRISING SAME, AND METHODS OF MAKING AND USING THE SAME” (The Research Foundation for The State University of New York, priority 2014, published 2017).

Structures are written as SMILES.

Format in all cases: physicochemical
Series [1] can be described thus: Fluorescence of dyes incorporated in silica without gold nanoparticle. The note with it: dye in silica without gold nanoparticle, excited at 785-nm, 50 μW/cm^2, 1.0 s. The source says:
Comparison of CP-dye 3 with a cyanine-based SERRS-reporter. In order to assess the quality of our optimized nanoprobe, thiopyrylium dye 3 and commercially available IR792 (FIG. 19 A), which has been previously used to generate surface-enhanced resonance Raman scattering nanoprobes, were studied. […] It is interesting to note that a fluorescence background is minimal in the SERRS spectra of the CP- and cyanine-based SERRS-nanoprobes. Whereas fluorescence interference would not be expected from chalcogenopyrylium dyes containing heavy chalcogens that enhance intersystem crossing, fluorescence interference could be expected for the cyanine dye IR792. […] This is due to quenching effects near the surface of the nanoparticle.

Series [2] can be described thus: UV/VIS-near-IR absorption of the dyes. The note with it: for ε (CH2Cl2): molar extinction coefficient in CH2Cl2. Here is the method: Synthetic Methods. All reactions were performed open to air unless otherwise noted. Concentration in vacuo was performed on a rotary evaporator. NMR spectra were recorded at 300 or 500 MHz for ^1H and at 75.5 MHz for ^13C with residual solvent signal as internal standard. UV/VIS-near-IR spectra were recorded in quartz cuvettes with a 1-cm path length. Melting points were determined with a capillary melting point apparatus and are uncorrected. […] Pyranones 16b-16d are known compounds (J. Heterocycl. Chem. 1999, 36, 707-717). The synthesis of thiopyranone 16a and 4-methylpyrylium salt 15c is shown in Scheme 2. 4-Methylpyrylium salts 15a, 15d, and 15e have been reported previously in the literature (J. Org. Chem. 1982, 47, 5235-5239; Organometallics 1988, 7, 1131-1147; Dyes Pigm. 2000, 45, 1-7).

A short description of series [3]: Effect of counterion on colloidal stability of SERRS-nanoprobes. Conditions: 10 μM dye. Here is the method: Effect of counterion on colloidal stability and SERRS-signal. […] Since SERRS is highly dependent on these factors, we evaluated the effect of the counterion (Z^−) on the SERRS spectrum, intensity, and colloidal stability of the pyrylium-based SERRS-nanoprobes. We compared chloride (Cl^−), bromide (Br^−), perchlorate (ClO4^−), and hexafluorophosphate (PF6^−) as counterions for chalcogenopyrylium dye 1a. The SERRS-nanoprobes were synthesized in the presence of equimolar amounts (10 μM) of CP dye 1a.Z^− (where Z^−═Cl^−, Br^−, ClO4^−, or PF6^−). The counterion introduces almost no difference in optical properties (e.g. absorption maxima, extinction coefficient). Furthermore, with the exception of the chloride counter-ion, the Raman shifts and intensity of 1a were minimally affected by the different counterions (FIG. 17 B). […] Since the PF6^− anion induced the least nanoparticle aggregation, it was used for further SERRS experiments.
SERRS-nanoprobe characterization. […] The size and concentration of the SERRS-nanoprobes were determined on a Nanoparticle Tracking Analyzer (NTA; Malvern Instruments, Malvern, UK). Absorption spectra to determine possible nanoparticle aggregation (typically detectable at wavelengths >600 nm) were measured on an M1000Pro spectrophotometer (Tecan Systems Inc. San Jose, Calif.). […]

The mark [4] stands for this setting: Table 2, Example 2 dyes, CH2Cl2.

As for `CCCN1/C(=C\C=C2/CCCC(/C=C/C3=[N+](CCC)c4ccccc4C3(C)C)=C2Sc2ccccc2)C(C)(C)c2ccccc21` [IR792], the fluorescence result in series [1] was “strong fluorescence”.
For the compound `C(=Cc1cc(-c2ccccc2)[se+]c(-c2ccccc2)c1)C=C1C=C(c2ccccc2)[Se]C(c2ccccc2)=C1.F[P-](F)(F)(F)(F)F` [Dye 1a, 4-(3-(2,6-diphenyl-4H-selenopyran-4-ylidene)prop-1-enyl)-2,6-diphenylselenopyrylium hexafluorophosphate], in series [2] (Table 2, Example 2 dyes), the “Log (ε)” value was 5.40. The “λmax (CH2Cl2)” value in series [2] (setting [4]) is on record as 806 nm. Besides, the “colloidal stability of SERRS-nanoprobes” value in series [3] (counterion Cl^−) is “strongly destabilized the gold colloids and caused aggregation”; in series [3] (counterion PF6^−), “did not affect colloidal stability”.
`ClC1=C(/C=C/c2cc(-c3ccccc3)[s+]c(-c3ccccc3)c2)CCC/C1=C\C=C1C=C(c2ccccc2)SC(c2ccccc2)=C1` [Dye 20, 4-((E)-2-((E)-2-chloro-3-(2-(2,6-diphenyl-4H-thiopyran-4-ylidene)ethylidene)cyclohex-1-en-1-yl)vinyl)-2,6-diphenylthiopyrylium hexafluorophosphate]: the “λmax (CH2Cl2)” value in series [2] (absorption maximum in CH2Cl2) came out at 1042 nm. Moreover, the “ε (CH2Cl2)” value in series [2] worked out at 100000 M⁻¹ cm⁻¹.
With `C(/C=C/C=C/c1cc(-c2cccs2)[s+]c(-c2cccs2)c1)=C1C=C(c2cccs2)SC(c2cccs2)=C1` [Dye 18, 4-((1E,3E)-5-(2,6-di(thiophen-2-yl)-4H-thiopyran-4-ylidene)penta-1,3-dien-1-yl)-2,6-di(thiophen-2-yl)thiopyrylium], in series [2] (absorption maximum in CH2Cl2), the “λmax (CH2Cl2)” value turned out to be 943 nm.
Regarding `C(=Cc1cc(-c2ccccc2)[se+]c(-c2ccccc2)c1)C=C1C=C(c2ccccc2)[Se]C(c2ccccc2)=C1.F[P-](F)(F)(F)(F)F` [Dye 9, 4-(3-(2,6-diphenyl-4H-selenopyran-4-ylidene)prop-1-enyl)-2,6-diphenylselenopyrylium hexafluorophosphate], the “λmax (CH2Cl2)” value in series [2] (absorption maximum in CH2Cl2) is recorded as 806 nm. Also, in series [2], the “ε (CH2Cl2)” value was found to be 250000 M⁻¹ cm⁻¹.
Turning to `C(=C1C=C(c2cccs2)SC(c2cccs2)=C1)c1cc(-c2cccs2)[se+]c(-c2cccs2)c1.F[P-](F)(F)(F)(F)F` [Dye 5, 4-((2,6-di(thiophen-2-yl)-4H-thiopyran-4-ylidene)methyl)-2,6-di(thiophen-2-yl)selenopyrylium hexafluorophosphate], the “λmax (CH2Cl2)” value in series [2] (absorption maximum in CH2Cl2) was 698 nm. Moreover, the “ε (CH2Cl2)” value in series [2] came to 110000 M⁻¹ cm⁻¹.
As to `C1=C(c2cccs2)[Se]c2ccccc2/C1=C/C1=CC(c2cccs2)=[SeH]c2ccccc21` [Dye 17, 2-(thiophene-2-yl)-4-((2-(thiophen-2-yl)-4H selenobenzopyran-4-ylidene)methyl)selenobenzopyrylium hexafluorophosphate], in series [2] (absorption maximum in CH2Cl2), the “λmax (CH2Cl2)” value was determined as 786 nm. Besides, the “ε (CH2Cl2)” value in series [2] was 78000 M⁻¹ cm⁻¹.
For the compound `C(=C1C=C(c2cccs2)[Se]C(c2cccs2)=C1)c1cc(-c2cccs2)[se+]c(-c2cccs2)c1.F[P-](F)(F)(F)(F)F` [Dye 6, 4-((2,6-di(thiophen-2-yl)-4H-selenopyran-4-ylidene)methyl)-2,6-di(thiophen-2-yl)selenopyrylium hexafluorophosphate], the “λmax (CH2Cl2)” value in series [2] (absorption maximum in CH2Cl2) worked out at 724 nm. In addition, the “ε (CH2Cl2)” value in series [2] turned out to be 130000 M⁻¹ cm⁻¹.
Turning to `C(=Cc1cc(-c2cccs2)[s+]c(-c2cccs2)c1)C=C1C=C(c2cccs2)SC(c2cccs2)=C1.F[P-](F)(F)(F)(F)F` [Dye 13, 4-(3-(2,6-dithiophen-2-yl-4H-thiopyran-4-ylidene)prop-1-enyl)-(2,6-dithiophen-2-yl)thiopyrylium hexafluorophosphate], the “λmax (CH2Cl2)” value in series [2] (absorption maximum in CH2Cl2) was 813 nm. The “ε (CH2Cl2)” value in series [2] was found to be 280000 M⁻¹ cm⁻¹.
In the case of `ClC1=C(/C=C/c2cc(-c3cccs3)[s+]c(-c3cccs3)c2)CCC/C1=C\C=C1C=C(c2cccs2)SC(c2cccs2)=C1` [Dye 21, 4-((E)-2-((E)-2-chloro-3-(2-(2,6-di(thiophen-2-yl)-4H-thiopyran-4-ylidene)ethylidene)-cyclohex-1-en-1-yl)vinyl)-2,6-di(thiophen-2-yl)thiopyrylium hexafluorophosphate], the “λmax (CH2Cl2)” value in series [2] (absorption maximum in CH2Cl2) was determined as 1119 nm.
With `C(=Cc1cc(-c2ccccc2)[se+]c(-c2ccccc2)c1)C=C1C=C(c2ccccc2)SC(c2ccccc2)=C1.F[P-](F)(F)(F)(F)F` [Dye 1b, 4-(3-(2,6-diphenyl-4H-thiopyran-4-ylidene)prop-1-enyl)-2,6-diphenylselenopyrylium hexafluorophosphate], in series [2] (Table 2, Example 2 dyes), the “Log (ε)” value is reported as 5.30. In addition, in series [2] (setting [4]), the “λmax (CH2Cl2)” value was 784 nm.
As to `C1=C(c2ccccc2)Sc2ccccc2/C1=C/C=C/C1=CC(c2ccccc2)=[SH]c2ccccc21` [Dye 15, 2-phenyl-4-((E)-3-((E)-2-phenyl-4H-thiochromen-4-ylidene)prop-1-en-1-yl)thiochromenylium hexafluorophosphate], the “λmax (CH2Cl2)” value in series [2] (absorption maximum in CH2Cl2) is 789 nm. The “ε (CH2Cl2)” value in series [2] was determined as 150000 M⁻¹ cm⁻¹.
With `C(/C=C/C=C/c1cc(-c2ccc[se]2)[se+]c(-c2ccc[se]2)c1)=C1C=C(c2ccc[se]2)[Se]C(c2ccc[se]2)=C1` [Dye 19, 4-((1E,3E)-5-(2,6-di(selenophen-2-yl)-4H-selenopyran-4-ylidene)penta-1,3-dien-1-yl)-2,6-di(selenophen-2-yl)selenopyrylium], the “λmax (CH2Cl2)” value in series [2] (absorption maximum in CH2Cl2) was 1001 nm.
Regarding `C(=Cc1cc(-c2ccccc2)[s+]c(-c2ccccc2)c1)C=C1C=C(c2cccs2)SC(c2cccs2)=C1.F[P-](F)(F)(F)(F)F` [Dye 2b, 4-(3-(2,6-dithiophen-2-yl-4H-thiopyran-4-ylidene)prop-1-enyl)-2,6-diphenylthiopyrylium hexafluorophosphate], the “Log (ε)” value in series [2] (Table 2, Example 2 dyes) was 5.34. Moreover, the “λmax (CH2Cl2)” value in series [2] (setting [4]) came to 789 nm.
Regarding `C(=Cc1cc(-c2ccccc2)[se+]c(-c2ccccc2)c1)C=C1C=C(c2cccs2)SC(c2cccs2)=C1.F[P-](F)(F)(F)(F)F` [Dye 2a, 4-(3-(2,6-dithiophen-2-yl-4H-thiopyran-4-ylidene)prop-1-enyl)-2,6-diphenylselenopyrylium hexafluorophosphate], the “Log (ε)” value in series [2] (Table 2, Example 2 dyes) was 5.40. Besides, the “λmax (CH2Cl2)” value in series [2] (setting [4]) is 810 nm.
Regarding `C(=C1C=C(c2cccs2)SC(c2cccs2)=C1)c1cc(-c2cccs2)[s+]c(-c2cccs2)c1.F[P-](F)(F)(F)(F)F` [Dye 4, 4-((2,6-di(thiophen-2-yl)-4H-thiopyran-4-ylidene)methyl)-2,6-di(thiophen-2-yl)thiopyrylium hexafluorophosphate], the “λmax (CH2Cl2)” value in series [2] (absorption maximum in CH2Cl2) is 676 nm. The “ε (CH2Cl2)” value in series [2] was 120000 M⁻¹ cm⁻¹.
Turning to `C(=Cc1cc(-c2ccccc2)[se+]c(-c2ccccc2)c1)C=C1C=C(c2ccccc2)SC(c2ccccc2)=C1.F[P-](F)(F)(F)(F)F` [Dye 10, 4-(3-(2,6-diphenyl-4H-thiopyran-4-ylidene)prop-1-enyl)-2,6-diphenylselenopyrylium hexafluorophosphate], the “λmax (CH2Cl2)” value in series [2] (absorption maximum in CH2Cl2) is reported as 784 nm. Also, the “ε (CH2Cl2)” value in series [2] amounted to 200000 M⁻¹ cm⁻¹.
On the same counts, the results for `C(=C1C=C(c2ccccc2)SC(c2ccccc2)=C1)c1cc(-c2cccs2)[s+]c(-c2cccs2)c1.F[P-](F)(F)(F)(F)F` [Dye 1] are 653 nm and 130000 M⁻¹ cm⁻¹.
